Test results published in patent publication US10555957B2, “Methods and compositions for enriching DHA levels in the brain” (The Board of Trustees of the University of Illinois, a body …, priority 2017, dated 2020).
Several values for one entry are separate records, joined by “and”; a condition that tells them apart may be missing. Identical values can stand only once.

Assays:
[1] = Feeding study, daily gavage for 30 days: fatty acid and DHA lipid species of plasma, liver, heart, adipose tissue and brain regions
normal adult mice = test: Morris water maze test; type: in vivo, C57BL/6 mice; settings: for finding the previous platform area, faster than the control and free DHA groups / time spent in the target quadrant versus control and free DHA groups: study 1, probe trial; for latency time to the previous platform area / time in the target quadrant: n=5
BDNF [2] = test: BDNF concentration in the brain regions by ELISA; type: in vivo, C57BL/6 mice; settings: 1 mg DHA/day, 30 days, n=6
Excerpt: Therefore, we determined BDNF concentration in the brain regions by ELISA to complement our MWM data.

[3] = Isomerization / isomer stability of LPC-DHA; type: physicochemical
Experimental: LPC-DHA was prepared by the hydrolysis of 16:0-22:6 PC by immobilized Mucor lipase (Lipozyme) by a modification of the published procedure. Briefly, 100 mg of Lipozyme was added to 50 mg of 16:0-22:6 PC dissolved in 1 ml of 95:5 (v/v) ethanol: water. The reaction mixture was incubated at 37° C. for 72 h under nitrogen with shaking. The reaction mixture was dried under nitrogen and extracted with 4 ml of ethanol: water: hexane (2:1:1, by vol) mixture to remove the free fatty acid. The lower layer was concentrated under nitrogen and extracted by Bligh and Dyer procedure. The final sample contained 95% LPC, the rest being unhydrolyzed PC, as determined by lipid phosphorus estimation after TLC separation. Although this enzyme produces sn-2 22:6 LPC, this isomer is unstable, and is non-enzymatically isomerized to sn-1-22:6 LPC [24,25].
sn-2 DHA LPC was prepared by the hydrolysis of 16:0-22:6 PC with immobilized Mucor lipase (Lipozyme) by a modification of the published procedure^44. […] The preparation contained >95% of lipid phosphorus in LPC DHA and the rest in unhydrolyzed PC, as determined by TLC, and was used for feeding studies without further purification. […] More than 95% of the 2-acyl LPC DHA was converted to 1-acyl isomer under these conditions, as determined by LC/MS.

[4] = Intestinal absorption of micellar DHA into lymph (HDL, chylomicrons; PC, TAG) in rats with lymph duct cannulation; type: in vivo, Sprague-Dawley rats
Experimental: Two types of micelle, one containing the DHA as free fatty acid, and the other containing the DHA as LPC, were prepared by sonication. All components except taurocholate were added as chloroform solutions to a glass tube and the solvent was evaporated under nitrogen. Then 10 ml of sodium taurocholate solution (12 mM, in PBS, pH 7.4) was added to the tube and the lipids dispersed by vortexing for 1 min. The mixture was then sonicated in a Sonics Vibro Cell sonicator at 40% setting for four 30 sec pulses at 1 min intervals, while the tube was immersed in ice. The resulting micelle were optically clear, and were used immediately for infusion into rats.
Thoracic lymph duct cannulation was carried out as described with slight modifications. The rats were fasted overnight before the procedure. Under analgesics and isoflurane anesthesia, the abdomen was opened, the dorsal parietal peritoneum was incised, and the aorta was dissected free from the surrounding muscle and thoracic duct. The duct was cannulated (3-5 mm) with a heparin (500 units/ml) and saline-rinsed, pre-cut catheter (16 gauge, BD Angiocath). Following insertion, the catheter was connected to ‘U” shaped secured Silastic Laboratory tubing to prevent displacement or dislodgement. Micelle (10 ml) were infused at a rate of 3 ml/h into the duodenum (Harvard pump) through a second catheter positioned into the duodenum, followed by the infusion of 10 ml PBS, at 3 ml/h. The abdomen was closed and the lymph was collected for 6 h, in 30 min fractions into tubes containing 1.0 ml of PBS, while the animal was under anesthesia. The body temperature of the animal was maintained at 37° C. with the help of a heating pad.
The volume of each lymph fraction was made up to 2.0 ml with PBS, containing 1 mM EDTA (final). The density of lymph fraction was raised to 1.063 g/ml by the addition of KBr and centrifuged at 100,000×g for 4 h at 4° C. in the TLA 100.3 rotor of the Beckman TL-100 ultracentrifuge. One ml of the bottom layer was aspirated to a new tube (HDL) and the remaining 1.0 ml was taken as the chylomicrons (CM).
Extraction and Analysis of Lipids. The total lipids of HDL and CM were extracted by the Bligh and Dyer method after spiking the samples with 25 μg each of 15:0-15:0-15:0 TAG and 17:0-17:0 PC. The lipid extract was applied to an aminopropyl silica cartridge (100 mg) in 1 ml of chloroform under gravity, and the cartridge was washed with chloroform (2×1.0 ml) to elute the TAG and cholesteryl esters. […] The PC was then eluted with 2.0 ml of chloroform: methanol (3:2, v/v)).
The temperature program was as follows: 165° C. for 1 min, raised to 210° C. at the rate of 6.5° C./min, followed by raising to 240° C. at the rate of 3.5° C./min, and maintaining at 240° C. for 10 min. The total analysis time was 26.5 min. The injection temperature was 250° C., ion source temperature 230° C. and the interface temperature was 250° C. […] The identification of individual FAME was done by comparison of retention times with the standard mixture (PUFA2, Sigma) as well as by the characteristic fragment ions (m/z 74 for saturated, m/z 55 for monounsaturated, m/z 67 for diunsaturated, and m/z 79 for polyunsaturated).

[5] = Feeding free EPA or LPC-EPA for 15 days: omega 3 fatty acids and arachidonic acid in tissues; type: in vivo, Mice; settings: 1 mg EPA/day for 15 days
[6] = as above; type: in vivo, Mice; settings: oral; for all three n-3 fatty acids in the liver / decrease in liver arachidonic acid level / decrease of brain content of arachidonic acid: 15 days; for increase of brain DHA content: corn oil gavage
Experimental: Mice were fed oral preparations of free EPA or LPC-EPA at about 1 mg/kg per day for 15 days. The compounds were dispersed in corn oil (80 μl) and fed daily by gavge.

[7] = cited from earlier work
BDNF [8] = test: BDNF levels in the brain after feeding free EPA or LPC-EPA; type: in vivo, Mice; settings: 1 mg EPA/day for 15 days
Experimental: The compounds were dispersed in corn oil (80 μl) and fed daily by gavge. Results are shown in e.g. […]. […] See e.g. FIGS. 23A-23C.

[9] = ref [32]; cited from earlier work
[10] = about 1 mg/kg per day for 15 days

## CC/C=C\C/C=C\C/C=C\C/C=C\C/C=C\C/C=C\CCC(=O)O[C@H](CO)COP(=O)([O-])OCC[N+](C)(C)C [sn-2 DHA LPC]
[1]; 1 mg DHA/day, 30 days
  22:6/20:4 ratio in liver: increase
  DHA concentration in liver: significantly increased
  concentration of 20:4 in liver: parallel decrease
[1]; cortex, cerebellum, hippocampus, striatum, amygdala, % of total fatty acids
  enrichment of all the brain regions with DHA: significantly enriched
Normal adult mice
  finding the previous platform area, faster than the control and free DHA groups: 7 times
  time spent in the target quadrant versus control and free DHA groups: twice as long
BDNF [2]
  BDNF content in regions of the brain: significantly increased
[3]; physiological pH and temperature, unpublished results
  isomerization to the sn-1 isomer, compared with sn-2 16:0 LPC: much slower
[3]; stored in chloroform: methanol (9:1) at −20° C., at least 4 weeks
  LPC remaining as sn-2 isomer: Over 90%

## CC/C=C\C/C=C\C/C=C\C/C=C\C/C=C\C/C=C\CCC(=O)O [free DHA, (4Z,7Z,10Z,13Z,16Z,19Z)-docosa-4,7,10,13,16,19-hexaenoic acid, reference compound]
[1]; 1 mg DHA/day, 30 days
  DHA concentration and 22:6/20:4 ratio in adipose tissue: increase
[1]; LC/MS/MS
  20:4-22:6 PC in the hippocampus: increased
  DHA-PC species in plasma: not
  major species of DHA-PE in the hippocampus: not
  plasma TAG species containing DHA: increased more
[1]; LC/MS/MS, 1 mg DHA/day, 30 days
  LPC DHA concentration of plasma: not
[1]; all regions of brain
  22:6/20:4 ratio in brain regions: no significant increase
[1]; equal amount of DHA, 30 days
  increase of brain DHA levels in normal adult mice: did not appreciably increase
[4]; HDL and CM, free DHA compared to LPC-DHA
  percentage of 22:6/22:6/18:1 TAG species: significantly higher
[4]; free DHA compared to LPC-DHA absorption
  TAG species containing DHA at all 3 positions: significantly higher
[4]
  significant amount of free DHA in the lymph after infusion: not observed
Normal adult mice; second study, probe trial
  latency time to the previous platform area: 47.1 s
  time in the target quadrant: 12 s
BDNF [2]
  BDNF content in regions of the brain: no change

## CC/C=C\C/C=C\C/C=C\C/C=C\C/C=C\CCCC(=O)O [free EPA, eicosapentaenoic acid]
[5]
  enriching the total omega 3 fatty acids in the heart: equally efficient
  omega 3 fatty acid content of adipose tissue: enriched more
  omega 3 fatty acids in erythrocytes: increased
[6]
  all three n-3 fatty acids in the liver: increased
  decrease in liver arachidonic acid level: ~60%
  decrease of brain content of arachidonic acid: ~12%
[6]; [10]
  increase of brain EPA (in words): to a small extent
  increase of total amount of brain Omega 3 fatty acids (EPA+DPA+DHA): no change
  increase of brain DHA content: no effect

## CC/C=C\C/C=C\C/C=C\C/C=C\C/C=C\C/C=C\CCC(=O)OC[C@@H](O)COP(=O)([O-])OCC[N+](C)(C)C [sn-1 DHA LPC]
[1]; mouse, in vivo
  18:1-22:6 PC in plasma, between the two LPC isomers: greater increase
  22:6/20:4 ratio in liver: significantly increased
  DHA concentration in liver: did not reach statistical significance
  enrichment of all the brain regions with DHA: significantly enriched
  increase in plasma LPC DHA, sn-1 DHA LPC compared to sn-2 DHA LPC: 28%
  increase of DHA content (nmol/mg) in striatum and amygdala: did not reach statistical significance
Normal adult mice; second study
  acquisition phase, learning the location of the platform by Day 5: faster
Normal adult mice; second study, probe trial
  latency time to the previous platform area: 12.7 s
  time in the target quadrant: 29.9 s
Normal adult mice
  finding the previous platform area, faster than the control and free DHA groups: 7 times
  time spent in the target quadrant versus control and free DHA groups: twice as long
BDNF [2]
  BDNF content in regions of the brain: significantly increased

## docosahexaenoic acid-lysophosphatidylcholine [LPC-DHA]
[1]; 1 mg DHA/day, 30 days
  increase of DHA content in most regions of the brain (nmol of DHA per mg wet weight): 2-3 fold
[1]; % of total fatty acids, 1 mg DHA/day, 30 days
  percentage of DHA in plasma: greater
[4]; HDL and CM, LPC-DHA compared to free DHA absorption
  percentage of 16:0/22:6 PC: significantly lower
[4]
  significant amount of free DHA in the lymph after infusion: not observed
[4]; lymph HDL
  increase in amount of DHA recovered in lymph HDL, compared to free DHA absorption: > 2 fold
[4]; some experiments
  hydrolysis in the intestinal lumen (intestinal contents after the 6 h lymph collection): no hydrolysis of LPC in the lumen
[4]; whole lymph
  percent of whole lymph DHA appearing in PC, LPC compared to free fatty acid: 5 times
[4]; whole lymph, mean±SEM
  percent of whole lymph DHA appearing in PC: 18.72±2.88% and 18%
Normal adult mice; probe trial
  decrease in the latency to previous platform area, compared to the control or free DHA treated animals: 7 fold
  increase in the time spent in the target quadrant, compared to the control or free DHA treated animals: 2 fold
[7]; kinetic studies [7]
  brain uptake of injected compound compared with free DHA: higher
[7]; previous studies in animals [5,6]
  efficiency of passing through the BBB compared with free fatty acid: about 10 times

## eicosapenteanoic acid-lysophosphatidylcholine [LPC-EPA]
BDNF [8]
  BDNF levels in the brain: increased
[5]
  arachidonic acid in the brain, LPC-EPA versus free EPA: decreased it more
  concentration of arachidonic acid in all tissues: decreased
  enriching the total omega 3 fatty acids in the heart: equally efficient
[6]
  all three n-3 fatty acids in the liver: increased
  decrease in liver arachidonic acid level: ~60%
  decrease of brain content of arachidonic acid: ~40%
[6]; [10]
  increase of total amount of brain Omega 3 fatty acids (EPA+DPA+DHA): about 90%
  increase of brain DHA content: 60%

## CCCCCCCCCCCCCCCC(=O)OCC(O)COP(=O)([O-])OCC[N+](C)(C)C (stereo not drawn) [16:0 LPC]
[9]
  recovery of 16:0 in lymph PC after infusion of 16:0 LPC: 25-30%
